We go through 13 molecules from ChEMBL document CHEMBL4732070, “Design, synthesis and biological assessment of new selective COX-2 inhibitors including methyl sulfonyl moiety” (Eur J Med Chem, 2021).

Molecules are shown by their SMILES. pIC50: −log10 of the molar value. Bounds are passed on as bounds.

The target in experiment [1] is T1, Prostaglandin G/H synthase 1 (Homo sapiens, UniProt P23219). In words: Inhibition of COX-1 (unknown origin) using arachidonic acid as substrate at 1000 uM measured after 10 mins by fluorometric based multimode microplate reader relative to control.
T1 sequence (P23219 whole entry): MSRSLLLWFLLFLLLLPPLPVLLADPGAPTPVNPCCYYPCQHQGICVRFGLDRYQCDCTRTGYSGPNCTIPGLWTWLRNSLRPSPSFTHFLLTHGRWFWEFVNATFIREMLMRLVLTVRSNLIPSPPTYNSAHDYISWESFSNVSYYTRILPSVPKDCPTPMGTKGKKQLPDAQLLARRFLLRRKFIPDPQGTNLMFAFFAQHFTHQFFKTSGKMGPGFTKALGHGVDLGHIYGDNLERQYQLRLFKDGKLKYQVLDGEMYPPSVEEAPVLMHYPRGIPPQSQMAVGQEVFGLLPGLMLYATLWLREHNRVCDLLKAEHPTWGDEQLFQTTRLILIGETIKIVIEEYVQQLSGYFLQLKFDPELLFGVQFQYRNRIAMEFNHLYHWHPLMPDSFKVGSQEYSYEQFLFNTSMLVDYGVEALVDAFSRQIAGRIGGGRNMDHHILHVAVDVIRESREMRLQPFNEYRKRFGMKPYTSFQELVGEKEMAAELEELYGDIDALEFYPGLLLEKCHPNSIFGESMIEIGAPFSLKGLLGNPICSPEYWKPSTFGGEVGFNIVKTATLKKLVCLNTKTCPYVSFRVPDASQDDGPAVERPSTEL
The target in experiment [2] is T1, Prostaglandin G/H synthase 1. In words: Inhibition of COX-1 (unknown origin) using arachidonic acid as substrate at 100 uM measured after 10 mins by fluorometric based multimode microplate reader relative to control.
The target is the same in experiment [3]. The experiment is described as follows: Inhibition of COX-1 (unknown origin) using arachidonic acid as substrate measured after 10 mins by fluorometric based multimode microplate reader.

A word on the inhibition: it is the share of the control response that was lost under treatment. By pIC50 is commonly meant the IC50 on a negative log10 scale, so that one unit is a factor of ten. Low readings indicate a high IC50, high ones a low IC50. Consider `CS(=O)(=O)c1ccc(-c2csc(N/N=C/c3ccc(O)cc3)n2)cc1`, for which the inhibition was 48.9% in experiment [1] and 32.2% in experiment [2]. The pIC50 in experiment [3] is less than 3.00.
The matching figures for `CS(=O)(=O)c1ccc(-c2csc(N/N=C/c3ccc(O)cc3O)n2)cc1`: 47.1%, 31.4% and less than 3.00.
The matching figures for `CS(=O)(=O)c1ccc(-c2csc(N/N=C/c3cccc(O)c3)n2)cc1`: 66.3%, 40.9% and less than 4.00.
The matching figures for `COc1ccc(/C=N/Nc2nc(-c3ccc(S(C)(=O)=O)cc3)cs2)cc1OC`: 55.6%, 40% and less than 4.00.
On to `COc1cc(/C=N/Nc2nc(-c3ccc(S(C)(=O)=O)cc3)cs2)cc(OC)c1OC`, for which the inhibition amounted to 45.7% in experiment [1] and 35.8% in experiment [2]. The negative-log IC50 (pIC50) in experiment [3] is less than 3.00.
Consider `CC(C)Cc1ccc(C(C)C(=O)O)cc1` (configuration not stated), for which, in experiment [2], the inhibition is 89.4%.
On to `COc1ccc(/C=N/Nc2nc(-c3ccc(S(C)(=O)=O)cc3)cs2)cc1O`, for which the inhibition in experiment [1] worked out at 61.3%; in experiment [2] it was 41.2%. The pIC50 in experiment [3] is less than 4.00.
In the same order, the values of `COc1ccc(/C=N/Nc2nc(-c3ccc(S(C)(=O)=O)cc3)cs2)c(OC)c1` are 44.6%, 27.7% and less than 3.00.
In the same order, the values of `COc1ccc(O)c(/C=N/Nc2nc(-c3ccc(S(C)(=O)=O)cc3)cs2)c1` are 53%, 43% and less than 4.00.
The matching figures for `COc1cccc(/C=N/Nc2nc(-c3ccc(S(C)(=O)=O)cc3)cs2)c1OC`: 57.4%, 40.8% and less than 4.00.
In the case of `COc1ccc(OC)c(/C=N/Nc2nc(-c3ccc(S(C)(=O)=O)cc3)cs2)c1`, the inhibition in experiment [1] stood at 60%; in experiment [2] it was 35%. The molecule further gave a pIC50 in experiment [3] of less than 4.00.
In the same order, the values of `COc1ccccc1/C=N/Nc1nc(-c2ccc(S(C)(=O)=O)cc2)cs1` are 43.1%, 30.8% and less than 3.00.
In the case of `COc1cc(/C=N/Nc2nc(-c3ccc(S(C)(=O)=O)cc3)cs2)cc(OC)c1O`, the inhibition in experiment [1] turned out to be 43.3%; in experiment [2], 32.3%. In experiment [3], this molecule gave a pIC50 of less than 3.00.
